In the assay the target is T1, h5-HT5A receptor (Homo sapiens, UniProt P47898).
T1 construct: expressed in transfected cells; host or cells: HEK293
T1 sequence (P47898 whole entry): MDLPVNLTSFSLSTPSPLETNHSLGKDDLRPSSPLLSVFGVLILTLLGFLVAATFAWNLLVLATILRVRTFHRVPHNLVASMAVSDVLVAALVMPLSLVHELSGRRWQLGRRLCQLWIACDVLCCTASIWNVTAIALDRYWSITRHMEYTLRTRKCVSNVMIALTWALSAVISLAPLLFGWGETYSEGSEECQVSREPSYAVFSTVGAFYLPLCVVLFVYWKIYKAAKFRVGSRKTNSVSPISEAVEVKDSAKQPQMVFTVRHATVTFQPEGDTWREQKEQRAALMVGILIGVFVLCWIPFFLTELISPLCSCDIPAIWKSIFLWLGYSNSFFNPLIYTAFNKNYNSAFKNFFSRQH
Briefly: [3H]5-CT binding assay h5-HT5A. To be noted: membranes from HEK293 cells expressing h5-HT5A, 2.5 nM [3H]5-CT; read-out: Binding affinity 5-HT5A (Ki). The method in brief:
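Membranes from HEK293 cells stably expressing h5-HT5A incubated with 2.5 nM [3H]5-CT and compound in 100 mM Tris-HCl pH 7.7, 1 mM EDTA, 75 min at 30° C. Nonspecific binding with 10 μM methiothepine; filtration and scintillation counting give Ki or IC50.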
The Ki is the equilibrium dissociation constant of an inhibitor or competing ligand from its target. In the case of `COc1ccccc1CNC(=N)Nc1nc(-c2ccccc2)c[nH]1` [Example 188, N-(2-methoxybenzyl)-N′-(4-phenyl-1H-imidazole-2-yl)guanidine acetate], the inhibition constant (Ki) is less than 50 nM. With `COc1cccc(OC)c1CNC(=N)Nc1nnc[nH]1` [Example 189, N-(2,6-Dimethoxybenzyl)-N′-4H-1,2,4-triazole-3-ylguanidine acetate] the figure was less than 50 nM; with `COc1cccc(OC)c1CNC(=N)Nc1nc(C)co1` [Example 190, N-(2,6-dimethoxybenzyl)-N′-(4-methyl-1,3-oxazole-2-yl)guanidine acetate], less than 50 nM; with `COc1cccc(OC)c1CNC(=N)Nc1nc(-c2ccc(F)cc2)c[nH]1` [Example 191, N-(2,6-dimethoxybenzyl)-N′-[4-(4-fluorophenyl)-1H-imidazole-2-yl]guanidine acetate], less than 50 nM.

Consider `CCOC(=O)c1csc(NC(=N)NCc2c(OC)cccc2OC)n1` [Example 192, Ethyl 2-{[[(2,6-dimethoxybenzyl)amino](imino)methyl]amino}-1,3-thiazole-4-carboxylate acetate], for which the Ki was less than 50 nM. As to `C=CCNC(=O)c1csc(NC(=N)NCc2c(OC)cccc2OC)n1` [Example 193, N-allyl-2-{[[(2,6-dimethoxybenzyl)amino](imino)methyl]amino}-1,3-thiazole-4-carboxamide], the Ki is less than 50 nM. Consider `COc1cccc(OC)c1CNC(=N)Nc1nc(C(=O)NCc2ccccc2)cs1` [Example 194, N-benzyl-2-{[[(2,6-dimethoxybenzyl)amino](imino)methyl]amino}-1,3-thiazole-4-carboxamide], for which the Ki is less than 50 nM. For `COc1cccc(Cl)c1CNC(=N)Nc1nc(-c2ccc(F)cc2)c[nH]1` [Example 195, N-(2-chlor-6-methoxybenzyl)-N′-[4-(4-fluorphenyl)-1H-imidazole-2-yl]guanidine acetate], the inhibitory constant (Ki) is less than 50 nM. With `COc1cccc(OC)c1CNC(=N)Nc1nc(C(=O)NC(C)C)cs1` [Example 196, 2-{[[(2,6-dimethoxybenzyl)amino](imino)methyl]amino}-N-isopropyl-1,3-thiazole-4-carboxamide] the figure was less than 50 nM.

Consider `COc1ccccc1CNC(=N)Nc1nc(-c2ccccc2)co1` [Example 197, N-(2-methoxybenzyl)-N′-(4-phenyl-1,3-oxazole-2-yl)guanidine], for which the inhibition constant Ki was in the range of 50 to 500 nM. For `COc1ccccc1CNC(=N)Nc1nc(-c2ccc(F)cc2)co1` [Example 198, N-[4-(4-fluorophenyl)-1,3-oxazole-2-yl]-N′-(2-methoxybenzyl)guanidine], the Ki was less than 50 nM. As for `COc1cccc(OC)c1CNC(=N)Nc1nc(-c2ccccc2)co1` [Example 199, N-(2,6-dimethoxybenzyl)-N′-(4-phenyl-1,3-oxazole-2-yl)guanidine], the figure is less than 50 nM. `COc1ccccc1CNC(=N)Nc1cc(C(C)(C)C)[nH]n1` [Example 200, N-(5-tert-butyl-1H-pyrazole-3-yl)-N′-(2-methoxy-benzyl)-guanidine]: the Ki lay within 50 to 500 nM.

Take `COc1ccccc1CNC(=N)Nc1cc(-c2ccccc2)[nH]n1` [Example 201, N-(2-methoxybenzyl)-N′-(5-phenyl-1H-pyrazole-3-yl)guanidine]: the Ki is less than 50 nM. With `COc1cccc(OC)c1CNC(=N)Nc1cc(-c2ccccc2)[nH]n1` [Example 202, N-(2,6-dimethoxybenzyl)-N′-(5-phenyl-1H-pyrazole-3-yl)guanidine] the figure was less than 50 nM; with `COc1cccc(OC)c1CNC(=N)Nc1cc[nH]n1` [Example 203, N-(2,6-dimethoxybenzyl)-N′-1H-pyrazole-3-ylguanidine], less than 50 nM; with `COc1cccc(OC)c1CNC(=N)Nc1cc(C(C)(C)C)[nH]n1` [Example 204, N-(5-tert-butyl-1H-pyrazole-3-yl)-N′-(2,6-dimethoxybenzyl)guanidine], less than 50 nM.

On to `COc1ccccc1CNC(=N)Nc1cc[nH]n1` [Example 205, N-(2-methoxybenzyl)-N′-1H-pyrazole-3-ylguanidine], for which the Ki lay in the range of 50 to 500 nM. Consider `COc1ccccc1CNC(=N)Nc1cc(-c2ccc(C)cc2)[nH]n1` [Example 206, N-(2-methoxybenzyl)-N′-[5-(4-methylphenyl)-1H-pyrazole-3-yl]guanidine], for which the Ki was less than 50 nM. Consider `COc1cccc(OC)c1CNC(=N)Nc1cc(-c2ccc(C)cc2)[nH]n1` [Example 207, N-(2,6-dimethoxybenzyl)-N′-[5-(4-methylphenyl)-1H-pyrazole-3-yl]guanidine], for which the Ki was less than 50 nM. With `COc1ccc(-c2cc(NC(=N)NCc3ccccc3OC)n[nH]2)cc1` [Example 208, N-(2-methoxybenzyl)-N′-[5-(4-methoxyphenyl)-1H-pyrazole-3-yl]guanidine] the figure was less than 50 nM; with `COc1ccc(-c2cc(NC(=N)NCc3c(OC)cccc3OC)n[nH]2)cc1` [Example 209, N-(2,6-dimethoxybenzyl)-N′-[5-(4-methoxyphenyl)-1H-pyrazole-3-yl]guanidine], less than 50 nM. Take `COc1cccc(F)c1CNC(=N)Nc1cc(C(C)(C)C)[nH]n1` [Example 210, N-(5-tert-butyl-1H-pyrazole-3-yl)-N′-(2-fluoro-6-methoxybenzyl)guanidine]: the Ki is less than 50 nM. Turning to `COc1ccccc1CNC(=N)Nc1cc(-c2ccc(Cl)cc2)[nH]n1` [Example 211, N-[5-(4-chlorophenyl)-1H-pyrazole-3-yl]-N′-(2-methoxybenzyl)guanidine], the Ki is less than 50 nM. Take `COc1cccc(OC)c1CNC(=N)Nc1cc(-c2ccc(Cl)cc2)[nH]n1` [Example 212, N-[5-(4-chlorophenyl)-1H-pyrazole-3-yl]-N′-(2,6-dimethoxybenzyl)guanidine]: the Ki is less than 50 nM. On to `COc1cccc(Cl)c1CNC(=N)Nc1cc(C(C)(C)C)[nH]n1` [Example 213, N-(5-tert-butyl-1H-pyrazole-3-yl)-N′-(2-chloro-6-methoxybenzyl)guanidine], for which the Ki is less than 50 nM. Regarding `COc1ccccc1CNC(=N)Nc1ccn(C)n1` [Example 214, N-(2-methoxybenzyl)-N′-(1-methyl-1H-pyrazole-3-yl)guanidine], the Ki is less than 50 nM. On to `COc1cccc(OC)c1CNC(=N)Nc1ccn(C)n1` [Example 215, N-(2,6-dimethoxybenzyl)-N′-(1-methyl-1H-pyrazole-3-yl)guanidine], for which the Ki is less than 50 nM. Take `COc1cccc(C)c1CNC(=N)Nc1cc(C(C)(C)C)[nH]n1` [Example 216, N-(5-tert-butyl-1H-pyrazole-3-yl)-N′-(2-methoxy-6-methylbenzyl)guanidine]: the Ki is less than 50 nM. On to `COc1ccccc1CNC(=N)Nc1n[nH]cc1-c1ccccc1` [Example 217, N-(2-methoxybenzyl)-N′-(4-phenyl-1H-pyrazole-3-yl)guanidine], for which the Ki is more than 500 nM. With `COc1cccc(OC)c1CNC(=N)Nc1n[nH]cc1-c1ccccc1` [Example 218, N-(2,6-dimethoxybenzyl)-N′-(4-phenyl-1H-pyrazole-3-yl)guanidine] the figure was more than 500 nM. With `COc1cccc(OC)c1CNC(=N)Nc1ccn(-c2ccccc2)n1` [Example 219, N-(2,6-dimethoxybenzyl)-N′-(1-phenyl-1H-pyrazole-3-yl)guanidine] the figure was less than 50 nM. On to `COc1ccccc1CNC(=N)Nc1ccn(-c2ccccc2)n1` [Example 220, N-(2-methoxybenzyl)-N′-(1-phenyl-1H-pyrazole-3-yl)guanidine], for which the Ki is less than 50 nM. For `COc1ccc(C(F)(F)F)cc1CNC(=N)Nc1nc(-c2ccccc2)cs1` [Example 221, N-[2-methoxy-5-(trifluoromethyl)benzyl]-N′-(4-phenyl-1,3-thiazole-2-yl)guanidine], the Ki was more than 500 nM. As to `COc1cccc(OC)c1CNC(=N)Nc1nc2c(s1)CNCC2` [Example 223, N-(2,6-dimethoxybenzyl)-N′-(4,5,6,7-tetrahydro[1,3]thiazolo[5,4-c]pyridine-2-yl)guanidine], the Ki was less than 50 nM. On to `COc1cccc(OC)c1CNC(=N)Nc1nc2c(s1)CN(C(C)=O)CC2` [Example 224, N-(5-acetyl-4,5,6,7-tetrahydro[1,3]thiazolo[5,4-c]pyridine-2-yl)-N′-(2,6-dimethoxybenzyl)guanidine], for which the Ki was less than 50 nM. With `COc1cccc(OC)c1CNC(=N)Nc1nc2c(s1)CN(S(=O)(=O)c1ccccc1)CC2` [Example 225, N-(2,6-dimethoxybenzyl)-N′-[5-(phenylsulfonyl)-4,5,6,7-tetrahydro[1,3]thiazolo[5,4-c]pyridine-2-yl]guanidine] the figure was less than 50 nM. With `COc1cccc(OC)c1CNC(=N)Nc1nc2c(s1)CN(Cc1ccccc1)CC2` [Example 226, N-(5-benzyl-4,5,6,7-tetrahydro[1,3]thiazolo[5,4-c]pyridine-2-yl)-N′-(2,6-dimethoxybenzyl)guanidine], the Ki is less than 50 nM. Regarding “Methyl-[2-({imino[(2-methoxybenzyl)amino]methyl}amino)-1,3-thiazole-4-yl]acetate [Example 47]”, the inhibition constant (Ki) was less than 50 nM.

With “N-4H-chromeno[4,3-d][1,3]thiazole-2-yl-N′-(2,6-dimethoxybenzyl)guanidine [Example 222]”, the Ki is less than 50 nM. For “N-(2,6-dimethoxybenzyl)-N′-(5-methyl-4-phenyl-1,3-thiazole-2-yl)guanidine hydrobromide [Example 81]”, the Ki is less than 50 nM. As to “N-(2-methoxybenzyl)-N′-1,3-thiazole-2-ylguanidine hydrochloride [Example 11]”, the Ki lay in the range of 50 to 500 nM. Regarding “N-[4-(2-{[[(2,6-dimethoxybenzyl)amino](imino)methyl]amino}-1,3-thiazole-4-yl)phenyl]acetamide acetate [Example 79]”, the Ki is less than 50 nM.
